Experimental data as given in publication PMC12157126, “Saturation kinetics and specificity of transporters for L-arginine and asymmetric dimethylarginine (ADMA) at the blood-brain and blood-CSF barriers” (PLOS One, 2025).
“And” between values parts separate entries of the source, which are not always exact repeats. Equal values may be shown once. Read-outs that look alike come from different tables or passages of the source.

Key:
[1] = test system: blood-brain and blood-CSF barriers; experiment: In situ brain/choroid plexus perfusion with capillary depletion: CNS uptake of [3H]-ADMA in absence and presence of transporter inhibitors; conditions: for RBrain, [3H]-ADMA alone: 10 min perfusion, mean±SEM; for RBrain, [3H]-ADMA alone / uptake of [3H]-ADMA: [14C]-sucrose corrected; for uptake of [3H]-ADMA: S14 Fig
Method: The in situ brain/choroid plexus perfusion method was performed as previously described and will only be briefly detailed here. […] At the end of the perfusion period a CSF sample was taken from the cisterna magna, the animal was decapitated, the brain removed and samples taken under a Leica S4E L2 stereomicroscope (Leica; Buckinghamshire, UK). […] The circumventricular organs (CVOs) including the choroid plexus, pituitary gland and pineal gland were also sampled. Brain samples were also taken for capillary depletion analysis.
Both the physiological capillary depletion buffer and dextran solution were maintained at 4 °C to halt any cell metabolism and transport processes, and to reduce any cellular or protein damage due to heat generated from the homogenisation process. The whole brain homogenate was then taken for dextran density centrifugation (5,400 x g) and 4 °C to produce an endothelial cell-enriched pellet and supernatant containing brain parenchyma.
The transporter proteins these inhibitors target are listed in S1 Table in S1 File.
% change=RTissue−RInhibition /RTissue× 100 (2)

[2] = test system: blood-brain and blood-CSF barriers; experiment: Self-inhibition experiments: [3H]-ADMA uptake with 0.5-500 μM unlabelled ADMA and kinetic constants (Km, Vmax, Kd); format: in vivo, adult male BALB/c mice; conditions: for Km: read-out: Km (half-saturation constant) of [3H]-ADMA influx
From the text: At the end of the perfusion period a CSF sample was taken from the cisterna magna, the animal was decapitated, the brain removed and samples taken under a Leica S4E L2 stereomicroscope (Leica; Buckinghamshire, UK). The samples included the frontal cortex, caudate nucleus, occipital cortex, hippocampus, hypothalamus, thalamus, pons and cerebellum. The circumventricular organs (CVOs) including the choroid plexus, pituitary gland and pineal gland were also sampled. Brain samples were also taken for capillary depletion analysis.
A series of single-time point experiments involved varying the unlabelled concentration of ADMA in the artificial plasma and measuring the [^3H]-ADMA uptake into the brain regions, capillary depletion samples, CVOs and CSF after 10 min of perfusion. […] This enabled calculation of the kinetic constants; Vmax (the maximal influx rate of the saturable component), Km (the half-saturation constant) and Kd (the constant of non-saturable diffusion).
In the case where the uptake of the radiolabelled test amino acid is examined in the presence of various unlabelled concentrations of the same test solute, Kin, can be defined as in equation 4:
Kin= Vmax/Km+ Cpl+ Kd (5)
Unidirectional ADMA flux (Jin) into the brain (nmol.min^-1.g^-1) and CSF (nmol.min^-1.ml^-1) was determined using equations 6 and 7:
Jin=VmaxCpl/Km+ Cpl+ KdCpl (8)
This constant of non-saturable diffusion was then used to calculate a non-saturable flux which could be subtracted from the total flux to determine the saturable flux. […] In some cases, there was no measurable non-saturable component and so estimates of Vmax and Km were obtained from plots of total flux, which was equal to the saturable flux.

For `CN(C)C(N)=NCCC[C@H](N)C(=O)O` [[^3H]-ADMA, asymmetric dimethylarginine], the “uptake into pellet, times lower than into choroid plexus” value ([1]; 10 minutes) was 124.2 times, the “RBrain, [3H]-ADMA alone” value ([1]; CSF) was 26.72±8.84 ml.100g^-1 and the “RBrain, [3H]-ADMA alone” value ([1]; caudate nucleus) was 24.07±2.92 ml.100g^-1. The “RBrain, [3H]-ADMA alone” value ([1]; cerebellum) was 17.65±1.52 (n=4) ml.100g^-1, the “RBrain, [3H]-ADMA alone” value ([1]; choroid plexus) was 260.9±42.45 ml.100g^-1 and the “uptake of [3H]-ADMA” value ([1]; choroid plexus, 10 minutes) was 260.85 ± 42.45 ml.100g^-1. For the same compound, the “RBrain, [3H]-ADMA alone” value ([1]; frontal cortex) was 24.94±3.50 ml.100g^-1, the “uptake of [3H]-ADMA” value ([1]; frontal cortex, 10 minutes) was 24.94 ± 3.50 ml.100g^-1 and the “RBrain, [3H]-ADMA alone” value ([1]; hippocampus) was 21.74±1.75 ml.100g^-1. The “RBrain, [3H]-ADMA alone” value ([1]; homogenate (capillary depletion)) was 17.70±3.10 (n=4) ml.100g^-1, the “RBrain, [3H]-ADMA alone” value ([1]; hypothalamus) was 30.42 ± 2.98 ml.100g^-1 and the “RBrain, [3H]-ADMA alone” value ([1]; occipital cortex) was 22.52±1.65 ml.100g^-1. For the same compound, the “RBrain, [3H]-ADMA alone” value ([1]; pellet (capillary depletion)) was 2.62±0.88 (n=4) ml.100g^-1, the “RBrain, [3H]-ADMA alone” value ([1]; pineal gland) was 194.1±48.46 ml.100g^-1 and the “RBrain, [3H]-ADMA alone” value ([1]; pituitary gland) was 182.9±32.28 ml.100g^-1. The “RBrain, [3H]-ADMA alone” value ([1]; pons) was 24.64±3.44 ml.100g^-1, the “RBrain, [3H]-ADMA alone” value ([1]; supernatant (capillary depletion)) was 10.03 ± 1.06 (n=4) ml.100g^-1 and the “RBrain, [3H]-ADMA alone” value ([1]; thalamus) was 21.09±1.74 ml.100g^-1. The “non-saturable component of [3H]-ADMA flux” value ([2]; CSF) was “no non-saturable component”, the “Vmax (maximal influx rate of the saturable component) of [3H]-ADMA” value (“Vmax” below) ([2]; CSF, from total flux) was 2.07 ± 0.38 nmol/min/g and 2.067 ± 0.38 nmol/min/g and the Km ([2]; CSF, from total flux) was 30.6 ± 25.4 µM. For the same compound, the “Kd (constant of non-saturable diffusion) of [3H]-ADMA” value ([2]; caudate nucleus) was 2.82 µL/min/g, the “Vmax” value ([2]; caudate nucleus) was 0.423 ± 0.061 nmol/min/g and the Km ([2]; caudate nucleus, saturable flux, sucrose space increased at 500 µM ADMA) was 25.2 ± 16.6 µM. For the same compound, the “Kd (constant of non-saturable diffusion) of [3H]-ADMA” value ([2]; cerebellum) was 5.20 µL/min/g, the “Vmax” value ([2]; cerebellum) was 0.235 ± 0.011 nmol/min/g and the Km ([2]; cerebellum, saturable flux, sucrose space increased at 500 µM ADMA) was 24.7 ± 5.32 µM. For the same compound, the RTissue ([2]; choroid plexuses, pituitary gland and pineal gland, 10 minutes) was greater than 100%, the “Vmax” value ([2]; frontal cortex) was 0.307 ± 0.017 nmol/min/g and the Km ([2]; frontal cortex, saturable flux) was 29.1 ± 7.19 µM. The “Kd (constant of non-saturable diffusion) of [3H]-ADMA” value ([2]; frontal cortex, slope of total flux at 100 and 500 μM) was 4.40 µL/min/g, the “Kd (constant of non-saturable diffusion) of [3H]-ADMA” value ([2]; hippocampus) was 3.23 µL/min/g and the “Vmax” value ([2]; hippocampus) was 0.24 ± 0.02 nmol/min/g. The Km ([2]; hippocampus, saturable flux, sucrose space increased at 500 µM ADMA) was 15.8 ± 6.86 µM, the “Kd (constant of non-saturable diffusion) of [3H]-ADMA” value ([2]; homogenate) was 3.34 µL/min/g and the “Vmax” value ([2]; homogenate) was 0.155 ± 0.013 nmol/min/g. The Km ([2]; homogenate, saturable flux) was 13.6 ± 5.26 µM, the “Kd (constant of non-saturable diffusion) of [3H]-ADMA” value ([2]; hypothalamus) was 5.18 µL/min/g and the “Vmax” value ([2]; hypothalamus) was 0.482 ± 0.049 nmol/min/g. For the same compound, the Km ([2]; hypothalamus, saturable flux) was 23.2 ± 10.8 µM, the “Kd (constant of non-saturable diffusion) of [3H]-ADMA” value ([2]; occipital cortex) was 4.65 µL/min/g and the “Vmax” value ([2]; occipital cortex) was 0.321 ± 0.034 nmol/min/g. The Km ([2]; occipital cortex, saturable flux, sucrose space increased at 500 µM ADMA) was 25.9 ± 12.6 µM, the “Kd (constant of non-saturable diffusion) of [3H]-ADMA” value ([2]; pellet) was 0.38 µL/min/g and the “Vmax” value ([2]; pellet) was 0.071 ± 0.008 nmol/min/g. The Km ([2]; pellet, saturable flux) was 34 ± 16.8 µM, the “Kd (constant of non-saturable diffusion) of [3H]-ADMA” value ([2]; pons) was 3.62 µL/min/g and the “Vmax” value ([2]; pons) was 0.325 ± 0.043 nmol/min/g. For the same compound, the Km ([2]; pons, saturable flux, sucrose space increased at 500 µM ADMA) was 18.2 ± 10.8 µM, the “Kd (constant of non-saturable diffusion) of [3H]-ADMA” value ([2]; supernatant) was 2.35 µL/min/g and the “Vmax” value ([2]; supernatant) was 0.208 ± 0.036 nmol/min/g. The Km ([2]; supernatant, saturable flux) was 68.5 ± 44.4 µM, the “Kd (constant of non-saturable diffusion) of [3H]-ADMA” value ([2]; thalamus) was 4.33 µL/min/g and the “Vmax” value ([2]; thalamus) was 0.278 ± 0.033 nmol/min/g. The Km ([2]; thalamus, saturable flux, sucrose space increased at 500 µM ADMA) was 18.5 ± 9.89 µM.

With `COc1ccc2c3c([nH]c2c1)C(C)=NCC3` [Harmaline, harmaline, reference compound] the “effect on [3H]-ADMA uptake” value ([1]; brain and choroid plexus) was “significantly inhibited” and the “effect on [3H]-ADMA uptake” value ([1]; brain homogenate or supernatant) was “did not significantly affect”.

`N[C@@H](Cc1ccccc1)C(=O)O` [L-phenylalanine, reference compound] was tested, and the “inhibition of [3H]-ADMA uptake” value ([1]; phenylalanine, some regions of the brain and the choroid plexus (up to)) was “up to 66.4%”.
